Drawing on ChEMBL document CHEMBL2429785, “Substituted Benzylspiroindolin-2-one Analogues as Positive Allosteric Modulators of the Muscarinic Acetylcholine Receptor M1” (ACS Med Chem Lett, 2013), this text covers Emax and EC50 for 2 molecules.

The target of experiment [1] is T1, Muscarinic acetylcholine receptor M1 (Homo sapiens) (UniProt P11229).
T1 sequence (whole entry): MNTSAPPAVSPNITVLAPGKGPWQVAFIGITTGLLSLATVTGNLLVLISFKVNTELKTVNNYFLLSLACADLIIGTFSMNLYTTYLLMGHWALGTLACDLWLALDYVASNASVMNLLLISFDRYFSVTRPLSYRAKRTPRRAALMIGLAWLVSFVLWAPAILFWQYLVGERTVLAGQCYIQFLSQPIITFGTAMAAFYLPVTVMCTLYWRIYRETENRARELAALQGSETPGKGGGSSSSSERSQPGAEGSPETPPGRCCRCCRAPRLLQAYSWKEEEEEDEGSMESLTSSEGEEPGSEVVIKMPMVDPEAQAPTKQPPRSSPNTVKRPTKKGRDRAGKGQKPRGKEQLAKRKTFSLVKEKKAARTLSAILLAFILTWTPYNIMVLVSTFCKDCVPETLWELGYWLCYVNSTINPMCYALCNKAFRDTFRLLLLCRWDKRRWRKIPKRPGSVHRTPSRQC
Nature of the experiment: Positive allosteric modulation at muscarinic acetylcholine receptor M1(unknown origin) relative to control.

The target of experiment [2] is T2, Muscarinic acetylcholine receptor M1 (Homo sapiens, UniProt P11229).
T2 sequence (P11229 whole entry): T1 sequence (whole entry)
Nature of the experiment: Positive allosteric modulation at muscarinic acetylcholine receptor M1(unknown origin).

The molecule `CN1CCC2(C1)C(=O)N(Cc1ccc(-c3cnn(C)c3)cc1F)c1ccccc12` (centres undefined) returned an Emax in experiment [1] of 76%. The molecule further showed a concentration for a half-maximal effect (EC50) in experiment [2] of 3.8 µM.
The corresponding values for `Cn1cc(-c2ccc(CN3C(=O)C4(OCCO4)c4ccccc43)c(F)c2)cn1` are 86% and 3.2 µM.
